{"source": "patent US20230330080A1", "about": "“THERAPEUTIC TREATMENT USING PROTEIN KINASE C (PKC) INHIBITORS AND CYTOTOXIC AGENTS” (Cambridge Enterprise Limited, priority 2020, published 2023)", "assay_type_in_all_cases": "cell-based, human", "key": {"[1]": {"test_system": "CLL patient cells co-cultured with wild-type bone marrow derived stroma cells", "assay": "Continuous PKC inhibitor exposure begun before cytotoxic agent; viability of CLL/stroma co-cultures by Annexin-V-FITC and DAPI flow cytometry", "experimental": "(§1) Approximately 20,000 wild-type bone marrow derived stroma cells were seeded into tissue culture wells and subsequently co-cultured with approximately 200,000 CLL patient cells. 24 hours thereafter, co-cultures were treated with 5 μM Enzastaurin at the indicated time-points prior to treatment with Venetoclax (FIG. 3A). Co-cultures were subsequently treated with Venetoclax (2.5 nM) for 24 hours. Cells were subsequently evaluated for viability using Annexin-V-FITC and DAPI staining on a flow cytometer (FIG. 3B).\nas §1, with “Bendamustine” for “Venetoclax”, “8).” for “3A).”, “Bendamustine (15 μM)” for “Venetoclax (2.5 nM)”, “8).” for “3B).”\nas §1, with “1” for “5”, “Midostaurin” for “Enzastaurin”, “Bendamustine” for “Venetoclax”, “8).” for “3A).”, “Bendamustine (15 μM)” for “Venetoclax (2.5 nM)”, “9).” for “3B).”"}, "[2]": {"test_system": "CLL patient cells co-cultured with wild-type bone marrow derived stroma cells", "assay": "1-hour PKC inhibitor pre-treatment with washout before cytotoxic agent; viability of CLL/stroma co-cultures by Annexin-V-FITC and DAPI flow cytometry", "experimental": "(§2) Approximately 20,000 wild-type bone marrow derived stroma cells were seeded into tissue culture wells and subsequently co-cultured with approximately 200,000 CLL patient cells. 24 hours thereafter, co-cultures were treated with 5 μM Enzastaurin for 1 hour at the indicated time-points prior to treatment with Fludarabine or Venetoclax (FIGS. 1A and 2A). Equivalent PKC-β-inhibitor exposure was maintained through removal and subsequent washout of Enzastaurin-treated co-cultures. Co-cultures were centrifuged at 500 g for 5 minutes, prior to removal of Enzastaurin containing media. Washout with cell culture media, was followed by an additional centrifugation at 500 g for 5 minutes, and the replacement of washout media with fresh media. Respective co-cultures were subsequently treated with either Fludarabine (2.5 μM) or Venetoclax (2.5 nM) for 24 hours. Cells were subsequently evaluated for viability using Annexin-V-FITC and DAPI, or 4′,6-diamidino-2-phenylindole, staining on a flow cytometer (FIGS. 1B and 2B).\nas §2, with “Bendamustine (FIG. 7).” for “Fludarabine or Venetoclax (FIGS. 1A and 2A).”, “Bendamustine (15” for “either Fludarabine (2.5”, “μM)” for “μM) or Venetoclax (2.5 nM)”, “cytometer.” for “cytometer (FIGS. 1B and 2B).”\nApproximately 20,000 wild-type bone marrow derived stroma cells were seeded into tissue culture wells and subsequently co-cultured with approximately 200,000 CLL patient cells. 24 hours thereafter, co-cultures were treated with 5 μM Ruboxistaurin for 1 hour at the indicated time-points prior to treatment with Venetoclax (FIG. 10A). Equivalent PKC-β-inhibitor exposure was maintained through removal and subsequent washout of Ruboxistaurin-treated co-cultures. Co-cultures were centrifuged at 500 g for 5 minutes, prior to removal of Ruboxistaurin containing media. Washout with cell culture media, was followed by an additional centrifugation at 500 g for 5 minutes, and the replacement of washout media with fresh media. Respective co-cultures were subsequently treated with Venetoclax (5 nM) for 24 hours. Cells were subsequently evaluated for viability using Annexin-V-FITC and DAPI, or 4′,6-diamidino-2-phenylindole, staining on a flow cytometer (FIG. 10B)."}, "[3]": {"test_system": "CLL patient cells co-cultured with wild-type bone marrow derived stroma cells", "assay": "Synergism of PKC-β inhibitors with Venetoclax in CLL/stroma co-culture (Compusyn, Bliss Independence model)", "settings": "PKC inhibitor 1.25, 2.5, 5 μM prior to Venetoclax 5, 10, 20 nM for 24 hours", "experimental": "Heatmaps reflect assessment values noted for respective compound combinations, with error (*) indicated below. A scale of 50 to −50, is applied to values, with 50 representing maximal synergism and −50 being maximal antagonism. Non-significant values are by default coloured as neither synergistic nor antagonistic;\nApproximately 20,000 wild-type bone marrow derived stroma cells were seeded into tissue culture wells and subsequently co-cultured with approximately 200,000 CLL patient cells. 24 hours thereafter, co-cultures were treated with Enzastaurin, Sotrastaurin or Midostaurin (1.25 μM, 2.5 μM, 5 μM) prior to treatment with Venetoclax. Co-cultures were subsequently treated with Venetoclax (5 nM, 10 nM, 20 nM) for 24 hours. Cells were subsequently evaluated for viability using flow cytometric analysis. Synergism was calculated using Compusyn Software (CRUK), within the Bliss Independence model (FIG. 5)."}, "[4]": {"settings": "5 μM Enzastaurin for 1 hour, then Bendamustine 15 μM for 24 hours"}, "[5]": {"settings": "5 μM Enzastaurin for 1 hour, then Fludarabine 2.5 μM for 24 hours"}, "[6]": {"settings": "5 μM Enzastaurin for 1 hour, then Venetoclax 2.5 nM for 24 hours"}, "[7]": {"settings": "5 μM Ruboxistaurin for 1 hour, then Venetoclax 5 nM for 24 hours"}}, "data": [{"smiles": "CO[C@@H]1[C@H](N(C)C(=O)c2ccccc2)C[C@H]2O[C@]1(C)n1c3ccccc3c3c4c(c5c6ccccc6n2c5c31)C(=O)NC4", "note": "[Midostaurin, N-((5R,7R,8R,9S)-8-methoxy-9-methyl-16-oxo-6,7,8,9,15,16-hexahydro-5H,14H-17-oxa-4b,9a,15-triaza-5,9-methanodibenzo[b,h]cyclonona[jkl]cyclopenta[e]-as-indacen-7-yl)-N-methylbenzamide]", "values": [{"measurement": "pre-dosing time giving greatest efficacy of Bendamustine", "setting": "[1]; continuous 1 μM Midostaurin beginning 1, 2, 3, 4, 6, 8 hours prior to Bendamustine 15 μM for 24 hours", "value": "3 to 8", "unit": "h"}]}, {"smiles": "Cn1cc(C2=C(c3cn(C4CCN(Cc5ccccn5)CC4)c4ccccc34)C(=O)NC2=O)c2ccccc21", "note": "[Enzastaurin, 3-(1-methylindol-3-yl)-4-[1-[1-(pyridin-2-ylmethyl)piperidin-4-yl]indol-3-yl]pyrrole-2,5-dione]", "values": [{"measurement": "pre-dosing timepoints showing increased efficacy of Bendamustine", "setting": "[2]; [4]", "value": "2 to 6", "unit": "h"}, {"measurement": "pre-dosing timepoints with largest effect on efficacy of Bendamustine", "setting": "[2]; [4]", "value": "3 to 6", "unit": "h"}, {"measurement": "pre-dosing time points showing increased efficacy of Fludarabine", "setting": "[2]; [5]", "value": "2 to 6", "unit": "h"}, {"measurement": "pre-dosing time points with largest effect on efficacy of Fludarabine", "setting": "[2]; [5]", "value": "3 to 6", "unit": "h"}, {"measurement": "pre-dosing time points showing increased efficacy of Venetoclax", "setting": "[2]; [6]", "value": "2 to 6", "unit": "h"}, {"measurement": "pre-dosing time points with largest effect on efficacy of Venetoclax", "setting": "[2]; [6]", "value": "3 to 6", "unit": "h"}, {"measurement": "pre-dosing time giving greatest efficacy of Bendamustine", "setting": "[1]; continuous 5 μM Enzastaurin beginning 1, 2, 3, 4, 6, 8 hours prior to Bendamustine 15 μM for 24 hours", "value": "3 to 6", "unit": "h"}, {"measurement": "pre-dosing time giving greatest efficacy of Venetoclax", "setting": "[1]; continuous 5 μM Enzastaurin beginning 1, 2, 3, 4, 6, 12 hours prior to Venetoclax 2.5 nM for 24 hours", "value": "3 to 6", "unit": "h"}, {"measurement": "combinatorial treatment effect with Venetoclax (synergism, Bliss model)", "setting": "[3]", "value": "synergistic effects"}]}, {"smiles": "CN1CCN(c2nc(C3=C(c4c[nH]c5ccccc45)C(O)=NC3=O)c3ccccc3n2)CC1", "note": "[Sotrastaurin, 5-hydroxy-4-(1H-indol-3-yl)-3-[2-(4-methylpiperazin-1-yl)quinazolin-4-yl]-2H-pyrrol-2-one]", "values": [{"measurement": "combinatorial treatment effect with Venetoclax (synergism, Bliss model)", "setting": "[3]", "value": "synergistic effects"}]}, {"smiles": "CN(C)C[C@@H]1CCn2cc(c3ccccc32)C2=C(C(=O)NC2=O)c2cn(c3ccccc23)CCO1", "note": "[Ruboxistaurin]", "values": [{"measurement": "pre-dosing time points showing increased efficacy of Venetoclax", "setting": "[2]; [7]", "value": "1 to 6", "unit": "h"}, {"measurement": "pre-dosing time points with most significant effects on efficacy of Venetoclax", "setting": "[2]; [7]", "value": "1 to 4", "unit": "h"}]}]}
